Assay results published in patent publication US11427549B2, “Pyrimidinyloxy benzo-fused compounds as herbicides” (FMC Corporation, priority 2017, dated 2022).

Tests used:
[1] = tested on: blackgrass (Alopecurus myosuroides); assay: Test A postemergence, blackgrass; assay type: in vivo; conditions: Alopecurus myosuroides, post-emergence, 240 h, 0 to 100 scale (0 no effect, 100 complete control), read-out: Plant response rating, Blackgrass; for pest or weed control at 31 g/ha: 31 g ai/ha; for pest or weed control at 125 g/ha: 125 g ai/ha
[2] = tested on: barnyardgrass (Echinochloa crus-galli); assay: Test A postemergence, barnyardgrass; assay type: in vivo; conditions: Echinochloa crus-galli, post-emergence, 240 h, 0 to 100 scale (0 no effect, 100 complete control), read-out: Plant response rating, Barnyardgrass; for pest or weed control at 31 g/ha: 31 g ai/ha; for pest or weed control at 125 g/ha: 125 g ai/ha
[3] = tested on: ryegrass, Italian (Italian ryegrass, Lolium multiflorum); assay: Test A preemergence, ryegrass, Italian; assay type: in vivo; conditions: Lolium multiflorum, pre-emergence, 240 h, 0 to 100 scale (0 no effect, 100 complete control), read-out: Plant response rating, Ryegrass, Italian; for pest or weed control at 31 g/ha: 31 g ai/ha; for pest or weed control at 125 g/ha: 125 g ai/ha
[4] = tested on: ragweed (common ragweed, Ambrosia elatior); assay: Test A preemergence, ragweed; assay type: in vivo; conditions: Ambrosia artemisiifolia, pre-emergence, 240 h, 0 to 100 scale (0 no effect, 100 complete control), read-out: Plant response rating, Ragweed; for pest or weed control at 31 g/ha: 31 g ai/ha; for pest or weed control at 125 g/ha: 125 g ai/ha
[5] = tested on: pigweed (Amaranthus retroflexus); assay: Test A preemergence, pigweed; assay type: in vivo; conditions: Amaranthus retroflexus, pre-emergence, 240 h, 0 to 100 scale (0 no effect, 100 complete control), read-out: Plant response rating, Pigweed; for pest or weed control at 31 g/ha: 31 g ai/ha; for pest or weed control at 125 g/ha: 125 g ai/ha
[6] = tested on: foxtail, green (green foxtail, Setaria viridis); assay: Test A postemergence, foxtail, green; assay type: in vivo; conditions: Setaria, post-emergence, 240 h, 0 to 100 scale (0 no effect, 100 complete control), read-out: Plant response rating, Foxtail, Green
Excerpt: Seeds of plant species selected from barnyardgrass (Echinochloa crus-galli), kochia (Kochia scoparia), ragweed (common ragweed, Ambrosia elatior), ryegrass, Italian (Italian ryegrass, Lolium multiflorum), foxtail, giant (giant foxtail, Setaria faberii), foxtail, green (green foxtail, Setaria viridis) and pigweed (Amaranthus retroflexus) were planted into a blend of loam soil and sand and treated preemergence with a directed soil spray using test chemicals formulated in a non-phytotoxic solvent mixture which included a surfactant.
At the same time, plants selected from these weed species and also wheat (Triticum aestivum), corn (Zea mays), blackgrass (Alopecurus myosuroides), and galium (catchweed bedstraw, Galium aparine) were planted in pots containing the same blend of loam soil and sand and treated with postemergence applications of test chemicals formulated in the same manner. Plants ranged in height from 2 to 10 cm and were in the one- to two-leaf stage for the postemergence treatment. Treated plants and untreated controls were maintained in a greenhouse for approximately 10 days, after which time all treated plants were compared to untreated controls and visually evaluated for injury. […] A dash (-) response means no test result.

[7] = tested on: wheat (Triticum aestivum); assay: Test A postemergence, wheat; assay type: in vivo; conditions: Triticum aestivum, post-emergence, 240 h, 0 to 100 scale (0 no effect, 100 complete control), read-out: Plant response rating, Wheat; for plant injury at 31 g/ha: 31 g ai/ha; for plant injury at 125 g/ha: 125 g ai/ha
[8] = tested on: galium (catchweed bedstraw, Galium aparine); assay: Test A postemergence, galium; assay type: in vivo; conditions: Galium, post-emergence, 240 h, 0 to 100 scale (0 no effect, 100 complete control), read-out: Plant response rating, Galium; for pest or weed control at 31 g/ha: 31 g ai/ha; for pest or weed control at 125 g/ha: 125 g ai/ha
[9] = tested on: ryegrass, Italian (Italian ryegrass, Lolium multiflorum); assay: Test A postemergence, ryegrass, Italian; assay type: in vivo; conditions: Lolium multiflorum, post-emergence, 240 h, 0 to 100 scale (0 no effect, 100 complete control), read-out: Plant response rating, Ryegrass, Italian; for pest or weed control at 31 g/ha: 31 g ai/ha; for pest or weed control at 125 g/ha: 125 g ai/ha
corn (Zea mays) = assay: Test A postemergence, corn; assay type: in vivo; conditions: Zea mays, post-emergence, 240 h, 0 to 100 scale (0 no effect, 100 complete control); for Corn plant response rating (crop injury, 0 = no effect, 100 = complete kill) at 31 g/ha: 31 g ai/ha; for Corn plant response rating (crop injury, 0 = no effect, 100 = complete kill) at 125 g/ha: 125 g ai/ha
[10] = tested on: ragweed (common ragweed, Ambrosia elatior); assay: Test A postemergence, ragweed; assay type: in vivo; conditions: Ambrosia artemisiifolia, post-emergence, 240 h, 0 to 100 scale (0 no effect, 100 complete control), read-out: Plant response rating, Ragweed; for pest or weed control at 31 g/ha: 31 g ai/ha; for pest or weed control at 125 g/ha: 125 g ai/ha
kochia (Kochia scoparia) [11] = assay: Test A postemergence, kochia; assay type: in vivo; conditions: Bassia scoparia, post-emergence, 240 h, 0 to 100 scale (0 no effect, 100 complete control), read-out: Plant response rating, Kochia; for pest or weed control at 31 g/ha: 31 g ai/ha; for pest or weed control at 125 g/ha: 125 g ai/ha
[12] = tested on: pigweed (Amaranthus retroflexus); assay: Test A postemergence, pigweed; assay type: in vivo; conditions: Amaranthus retroflexus, post-emergence, 240 h, 0 to 100 scale (0 no effect, 100 complete control), read-out: Plant response rating, Pigweed; for pest or weed control at 31 g/ha: 31 g ai/ha; for pest or weed control at 125 g/ha: 125 g ai/ha
[13] = tested on: barnyardgrass (Echinochloa crus-galli); assay: Test A preemergence, barnyardgrass; assay type: in vivo; conditions: Echinochloa crus-galli, pre-emergence, 240 h, 0 to 100 scale (0 no effect, 100 complete control), read-out: Plant response rating, Barnyardgrass; for pest or weed control at 31 g/ha: 31 g ai/ha; for pest or weed control at 125 g/ha: 125 g ai/ha
kochia (Kochia scoparia) [14] = assay: Test A preemergence, kochia; assay type: in vivo; conditions: Bassia scoparia, pre-emergence, 240 h, 0 to 100 scale (0 no effect, 100 complete control), read-out: Plant response rating, Kochia; for pest or weed control at 31 g/ha: 31 g ai/ha; for pest or weed control at 125 g/ha: 125 g ai/ha
[15] = tested on: barnyardgrass (Echinochloa crus-galli); assay: Test B flooded paddy test, barnyardgrass; conditions: Echinochloa crus-galli, read-out: Plant response rating, Barnyardgrass (0 to 100 scale, 0 is no effect, 100 is complete control)
[16] = tested on: ducksalad (Heteranthera limosa); assay: Test B flooded paddy test, ducksalad; conditions: Heteranthera limosa, read-out: Plant response rating, Ducksalad (0 to 100 scale, 0 is no effect, 100 is complete control)
rice (Oryza sativa) = assay: Test B flooded paddy test, rice; conditions: Oryza sativa, read-out: Plant response rating, Rice (0 to 100 scale, 0 is no effect, 100 is complete control)

O=C1CC(CCC(F)(F)F)c2c(Oc3ncc(Cl)cn3)cccc21 (centres unmarked) [Compound 11, 4-[(5-Chloro-2-pyrimidinyl)oxy]-2,3-dihydro-3-(3,3,3-trifluoropropyl)-1H-inden-1-one]
pest or weed control at 31 g/ha [1]: 0% | pest or weed control at 125 g/ha [1]: 20% | pest or weed control at 31 g/ha [2]: 20% | pest or weed control at 125 g/ha [2]: 30% | pest or weed control at 31 g/ha [3]: 0% | pest or weed control at 125 g/ha [3]: 20% | pest or weed control at 31 g/ha [4]: 0% | pest or weed control at 125 g/ha [4]: 0% | pest or weed control at 31 g/ha [5]: 10% | pest or weed control at 125 g/ha [5]: 100% | pest or weed control at 31 g/ha ([6]; 31 g ai/ha): 0% | pest or weed control at 125 g/ha ([6]; 125 g ai/ha): 10% | plant injury at 31 g/ha [7]: 0% | plant injury at 125 g/ha [7]: 10% | pest or weed control at 31 g/ha [8]: 10% | pest or weed control at 125 g/ha [8]: 40% | pest or weed control at 31 g/ha [9]: 30% | pest or weed control at 125 g/ha [9]: 40% | Corn plant response rating (crop injury, 0 = no effect, 100 = complete kill) at 31 g/ha (corn (Zea mays)): 0% | Corn plant response rating (crop injury, 0 = no effect, 100 = complete kill) at 125 g/ha (corn (Zea mays)): 10% | pest or weed control at 31 g/ha [10]: 0% | pest or weed control at 125 g/ha [10]: 10% | pest or weed control at 31 g/ha (kochia (Kochia scoparia) [11]): 20% | pest or weed control at 125 g/ha (kochia (Kochia scoparia) [11]): 50% | pest or weed control at 31 g/ha [12]: 40% | pest or weed control at 125 g/ha [12]: 50% | pest or weed control at 31 g/ha [13]: 0% | pest or weed control at 125 g/ha [13]: 50% | pest or weed control at 31 g/ha (kochia (Kochia scoparia) [14]): 0% | pest or weed control at 125 g/ha (kochia (Kochia scoparia) [14]): 20%

O=C1OCc2cccc(Oc3ncc(Cl)cn3)c2C1CCC(F)(F)F (centres unmarked) [Compound 29, 5-[(5-Chloro-2-pyrimidinyl)oxy]-1,4-dihydro-4-(3,3,3-trifluoropropyl)-3H-2-benzopyran-3-one]
pest or weed control at 250 g/ha [15]: 0% | pest or weed control at 31 g/ha [1]: 30% | pest or weed control at 125 g/ha [1]: 30% | pest or weed control at 31 g/ha [2]: 0% | pest or weed control at 125 g/ha [2]: 30% | pest or weed control at 31 g/ha [3]: 0% | pest or weed control at 125 g/ha [3]: 0% | pest or weed control at 31 g/ha [4]: 0% | pest or weed control at 125 g/ha [4]: 10% | pest or weed control at 250 g/ha [16]: 0% | pest or weed control at 31 g/ha [5]: 0% | pest or weed control at 125 g/ha [5]: 80% | plant injury at 31 g/ha [7]: 0% | plant injury at 125 g/ha [7]: 10% | pest or weed control at 31 g/ha [8]: 20% | pest or weed control at 125 g/ha [8]: 50% | pest or weed control at 31 g/ha [9]: 0% | pest or weed control at 125 g/ha [9]: 30% | Corn plant response rating (crop injury, 0 = no effect, 100 = complete kill) at 31 g/ha (corn (Zea mays)): 10% | Corn plant response rating (crop injury, 0 = no effect, 100 = complete kill) at 125 g/ha (corn (Zea mays)): 30% | pest or weed control at 31 g/ha [10]: 10% | pest or weed control at 125 g/ha [10]: 30% | pest or weed control at 31 g/ha (kochia (Kochia scoparia) [11]): 20% | pest or weed control at 125 g/ha (kochia (Kochia scoparia) [11]): 60% | plant injury at 250 g/ha (rice (Oryza sativa)): 0% | pest or weed control at 31 g/ha [12]: 30% | pest or weed control at 125 g/ha [12]: 70% | pest or weed control at 31 g/ha [13]: 0% | pest or weed control at 125 g/ha [13]: 10% | pest or weed control at 31 g/ha (kochia (Kochia scoparia) [14]): 0% | pest or weed control at 125 g/ha (kochia (Kochia scoparia) [14]): 10%

O=C1OCc2cccc(Oc3ncc(Cl)cn3)c2C1CCCCC(F)(F)F (centres unmarked) [Compound 34, 5-[(5-Chloro-2-pyrimidinyl)oxy]-1,4-dihydro-4-(5,5,5-trifluoropentyl)-3H-2-benzopyran-3-one]
pest or weed control at 250 g/ha [15]: 0% | pest or weed control at 31 g/ha [1]: 0% | pest or weed control at 125 g/ha [1]: 10% | pest or weed control at 31 g/ha [2]: 0% | pest or weed control at 125 g/ha [2]: 10% | pest or weed control at 31 g/ha [3]: 0% | pest or weed control at 125 g/ha [3]: 0% | pest or weed control at 31 g/ha [4]: 0% | pest or weed control at 125 g/ha [4]: 0% | pest or weed control at 250 g/ha [16]: 0% | pest or weed control at 31 g/ha [5]: 0% | pest or weed control at 125 g/ha [5]: 0% | plant injury at 31 g/ha [7]: 0% | plant injury at 125 g/ha [7]: 10% | pest or weed control at 31 g/ha [8]: 20% | pest or weed control at 125 g/ha [8]: 50% | pest or weed control at 31 g/ha [9]: 0% | pest or weed control at 125 g/ha [9]: 0% | Corn plant response rating (crop injury, 0 = no effect, 100 = complete kill) at 31 g/ha (corn (Zea mays)): 10% | Corn plant response rating (crop injury, 0 = no effect, 100 = complete kill) at 125 g/ha (corn (Zea mays)): 20% | pest or weed control at 31 g/ha [10]: 0% | pest or weed control at 125 g/ha [10]: 0% | pest or weed control at 31 g/ha (kochia (Kochia scoparia) [11]): 20% | pest or weed control at 125 g/ha (kochia (Kochia scoparia) [11]): 10% | plant injury at 250 g/ha (rice (Oryza sativa)): 0% | pest or weed control at 31 g/ha [12]: 10% | pest or weed control at 125 g/ha [12]: 40% | pest or weed control at 31 g/ha [13]: 0% | pest or weed control at 125 g/ha [13]: 0% | pest or weed control at 31 g/ha (kochia (Kochia scoparia) [14]): 0% | pest or weed control at 125 g/ha (kochia (Kochia scoparia) [14]): 0%
